Experimental data as given in patent US20040039050A1, “Cryptotanshinone for preventing and alleviating alzheimer's disease” (priority 2001, published 2004).

Legend:
[1] = Brain tissue entrance experiment; assay type: in vivo, rats; details: intragastric 300 mg/kg/day for 5 days; brain 1 hour after administration on 5th day; chloroform extract
Procedure: Experimental animals were healthy male rats. The drug was continually administrated intragastrically at a dose of 300 mg/kg/day, continued for 5 days. 1 hour after administration on the 5th day, rats were put to death and brains were taken out. The brain tissues were homogenized and then extracted with chloroform.

healthy male mice [2] = test: Acute toxicity test in mouse; assay type: in vivo; details: intragastric
Source text: The drug was administrated intragastrically.

AD rat model = test: Impaired neuro-behavioral symptoms relieving experiment, Morris water labyrinth; assay type: in vivo, SD rats; design: key: —: −Normal; +Dysmnesia (Number of + indicates the extent of memory impairment, and +++++ represents the most severe case.); +++++ represents the most severe case; details: oral 200 mg/kg/day, D-galactose/acetamide rats
Source text: Experimental animals were 40 healthy male SD rats, weight between 250-300 g. They were randomly divided into 4 groups, i.e. normal control group, model control group A (D-galactose/quinolinic acid group), model control group B (D-galactose/acetamide group), and Cryptotanshinone group (D-galactose/acetamide/Cryptotanshinone group). Morris water labyrinth method was used to evaluate the neuro-behavioral symptoms of rats model caused by subacute senium and chemical damage by D-galactose.
Normal control group: routine breeding.
Model control group A (D-galactose/quinolinic acid group): D-galactose was injected subcutaneously (50 mg/kg/day, for 6 weeks) to cause subacute senium in rats. Quinolinic acid (1 μL, containing quinolinic acid 75 nmol) was injected into the rats' bilateral hippocampal gyrus to evidently decrease rats' labyrinth learning and memorizing ability, which served as animal model similar to AD.
Model control group B (D-galactose/acetamide group): D-galactose was injected subcutaneously (50 mg/kg/day, for 6 weeks) to cause subacute senium in rats; acetamide (10 mmol/kg/day) was injected intraperitoneally for 7 continuous days. […] The treated rats were served as animal model similar to AD.
Cryptotanshinone group (D-galactose/acetamide/Cryptotanshinone group):
Simultaneously with subcutaneous injection of D-galactose (50 mg/kg/day, for 6 weeks), Cryptotanshinone was orally administered (the dose was 200 mg/kg/day). 10 mmol/kg acetamide was intraperitoneally injected for 7 continuous days (Cryptotanshinone was orally given at the same time).

healthy male mice [3] = test: 30 days toxicity test in mouse; assay type: in vivo; details: intragastric 200 mg/kg day for 30 days
Procedure: The drug was continually administrated intragastrically for 30 days with dose of 200 mg/kg day.

[4] = rats
[5] = test system: high-level brain ammonia animal model; test: Brain tissue ammonia concentration reducing experiment (oral); assay type: in vivo, SD rats; details: for Reduction rate: brain tissue ammonia, oral for 4 days, 60 min after acetamide on 4th day; for Brain tissue ammonia concentration: oral for 4 days (sodium glutamate 200 mg/kg, Cryptotanshinone 150 mg/kg), brain 60 min after acetamide on 4th day
Source text: (§1) The dose of sodium glutamate in this example and following examples was settled with the reference of its actual clinical dose. The method for determining the blood ammonia concentration in this example and following examples was enzyme-UV method, the instrument used was HITACHI-7170 automatic analyzer, and the kit used was AMMONIA kit. Calculation formula of decrease ratio in Table 1 and following tables was: Decrease rate=[1−(concentration of treating group−concentration of normal control group)/(concentration of experimental control group−concentration of normal control group)]×100%.
Experimental animals were 50 healthy male SD rats, weight between 250-300 g. They were randomly divided into 4 groups, i.e. normal control group, experimental control group ([…]), sodium glutamate/acetamide group, and Cryptotanshinone/acetamide group. […] 45 min after the injection, the rats in all those groups except the normal control group were injected intraperitoneally with 5.5 mmol/kg acetamide. Above injections continued for 4 days. In the 4th day, 60 min after the acetamide injection, the rats of each group were put to death, and brain tissue samples were taken out immediately and homogenized under low temperature condition, then the ammonia concentration in brain tissue was determined by using glutamate dehydrogenase assay.
The same experiment condition in example 6 was adopted except Sodium Glutamate oral taking (the dose was 200 mg/kg) instead of Sodium Glutamate injection and Cryptotanshinone oral taking (dose 150 mg/kg) instead of Cryptotanshinone injection. In the 4th day, 60 min after the acetamide injection, the rats of each group were put to death and brain tissue samples were taken out immediately. Then, the ammonia concentration in brain tissue was determined.

hyperammonemia rat model [6] = test: Blood ammonia reducing experiment (injection); assay type: in vivo, SD rats; details: for Reduction rate: blood ammonia, intraperitoneal for 4 days
Procedure: The animals used in this experiment were 50 healthy male SD rats weighing 250-300 g. They were randomly divided into 5 groups, that is, normal control group, experimental control group (acetamide group), sodium glutamate/acetamide group, Cryptotanshinone/acetamide group and tanshinone IIA/acetamide group. The rats in all those groups except the normal control group were injected intraperitoneally with saline, sodium glutamate injection (with a dose of 410 mg/kg), saline solution of Cryptotanshinone (containing small amount of surface active agent, with a dose of 10 mg/kg), saline solution of tanshinone IIA (containing small amount of surface active agent, with a dose of 10 mg/kg) respectively. 45 min after the injection, the rats in all those groups except normal control group were injected intraperitoneally with 5.5 mmol/kg acetamide. Above injections continued for 4 days. In the 4th day, 30 min after the acetamide injection, blood samples of the rats in each group were collected by eyeball removing method immediately, and processed with the anticoagulant EDTA-Na, then the blood ammonia concentration was determined using conventional method.
as §1
Using the same experiment method, 90 min after the acetamide injection at the 4th day, blood samples of the rats in each group were collected by eyeball removing method immediately. The blood ammonia concentration was determined.

[7] = test system: high-level brain ammonia animal model; test: Brain tissue ammonia concentration reducing experiment (injection); assay type: in vivo, SD rats; details: for Reduction rate: brain tissue ammonia, intraperitoneal for 4 days, 60 min after acetamide on 4th day; for Brain tissue ammonia concentration: intraperitoneal for 4 days (sodium glutamate 410 mg/kg, Cryptotanshinone 30 mg/kg), brain 60 min after acetamide on 4th day
Source text: as §1
Experimental animals were 50 healthy male SD rats, weight between 250-300 g. They were randomly divided into 4 groups, i.e. normal control group, experimental control group ([…]), sodium glutamate/acetamide group, and Cryptotanshinone/acetamide group. The rats in all those groups except the normal control group were injected intraperitoneally with saline, sodium glutamate solution (with a dose of 410 mg/kg), and saline solution of Cryptotanshinone (containing small amount of surface active agent, with a dose of 30 mg/kg) respectively. 45 min after the injection, the rats in all those groups except the normal control group were injected intraperitoneally with 5.5 mmol/kg acetamide. Above injections continued for 4 days. In the 4th day, 60 min after the acetamide injection, the rats of each group were put to death, and brain tissue samples were taken out immediately and homogenized under low temperature condition, then the ammonia concentration in brain tissue was determined by using glutamate dehydrogenase assay.

hyperammonemia rat model [8] = test: Blood ammonia reducing experiment (oral); assay type: in vivo, SD rats

Which results are given for `C[C@H]1COC2=C1C(=O)C(=O)c1c2ccc2c1CCCC2(C)C` [Cryptotanshinone]?
Cryptotanshinone detected in brain tissue with HPLC [1]: Significant amount; LD50 (healthy male mice [2]): > 30 g 1 kg; Toxic symptom or death (healthy male mice [2]; dose added to 1.5 g/kg): no toxic symptom or death; AD Symptom-Dysmnesia Synthetic Index (AD rat model; Day 1 after chemical damage): —; AD Symptom-Dysmnesia Synthetic Index (AD rat model; Day 2 after chemical damage): —; AD Symptom-Dysmnesia Synthetic Index (AD rat model; Day 3 after chemical damage): —; AD Symptom-Dysmnesia Synthetic Index (AD rat model; Day 4 after chemical damage): —; AD Symptom-Dysmnesia Synthetic Index (AD rat model; Day 5 after chemical damage): +; AD Symptom-Dysmnesia Synthetic Index (AD rat model; Day 6 after chemical damage): +; AD Symptom-Dysmnesia Synthetic Index (AD rat model; Day 7 after chemical damage): +; Change in growth and development, hematopoiesis function, and biochemical index (healthy male mice [3]): no apparent abnormal change or toxic reaction; Death of the tested mice (healthy male mice [3]): no death; Pathology of major organs (anatomical and tissue microscopy inspection) (healthy male mice [3]): No pathology change; Content of Cryptotanshinone in tissues [4]: highest in blood and brain tissue; Reduction rate [5]: 45%; Brain tissue ammonia concentration [5]: 310 nmol/g; Reduction rate (hyperammonemia rat model [6]; 30 min after acetamide on 4th day): 60%; Reduction rate [7]: 60%; Brain tissue ammonia concentration [7]: 280 nmol/g

With `Cc1cccc2c3c(ccc12)C1=C(C(=O)C3=O)[C@@H](C)CO1` [Dihydrotanshinone I] as the compound, how does the Reduction rate (hyperammonemia rat model [8]; blood ammonia, oral for 4 days, 90 min after acetamide on 4th day) read?
The Reduction rate was 97%.

And the Blood ammonia concentration (hyperammonemia rat model [8]; oral for 4 days (sodium glutamate 200 mg/kg, others 100 mg/kg), blood 90 min after acetamide on 4th day)?
Its Blood ammonia concentration is 120 µmol/L.

And the Reduction rate (hyperammonemia rat model [6]; 90 min after acetamide on 4th day)?
Its Reduction rate is 100%.

What about the Blood ammonia concentration (hyperammonemia rat model [6]; intraperitoneal for 4 days (sodium glutamate 410 mg/kg, others 10 mg/kg), blood 90 min after acetamide on 4th day) of the same compound?
Its Blood ammonia concentration is 110 µmol/L.

Which results are given for `N[C@@H](CCC(=O)[O-])C(=O)[O-].[Na+].[Na+]` [Sodium Glutamate, reference compound]?
Reduction rate [5]: 19%; Brain tissue ammonia concentration [5]: 370 nmol/g; Reduction rate [7]: 28%; Brain tissue ammonia concentration [7]: 350 nmol/g
